Laboratory results published in the supplement of paper PMC10307832.

Compound: CC1(COc2ccc3c(c2)ncn3-c2ccc3cccc(N4CCC(N)CC4)c3n2)COC1 [Crenolanib] + CC1(C)CCC(c2ccc(Cl)cc2)=C(CN2CCN(c3ccc(C(=O)NS(=O)(=O)c4ccc(N[C@H](CCN5CCOCC5)CSc5ccccc5)c(S(=O)(=O)C(F)(F)F)c4)cc3)CC2)C1 [Navitoclax] (partner 0.5 µM)
Experiment: relative viability (nuclei count vs DMSO), 5 days (fraction); higher = more cells survive
Details: first compound 0.01 µM
Method in brief: (§1)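 Nuclei were stained with Hoechst during a one-step fixation (final 0.05% Triton X-100, 1% formaldehyde, 1 ug/ml Hoechst) carried out 5 days after dosing, then counted on 4× images. The cells, lung cancer lines in 1536-well plates, had been dosed by pin tool the day after seeding with one drug alone or a fixed anchor-drug dose plus five library-drug doses (not always all listed) in √10 steps. Relative viability is the nuclei count in treated wells divided by that in vehicle wells, and each value is the median of duplicate plates.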

In order of falling relative viability:
1. CAL-12T  1.48
2. NCI-H2405  1.34
3. NCI-H460  1.24
4. NCI-H1650  1.22
5. 201T  1.19
6. NCI-H1975  1.18
7. NCI-H1395  1.13
8. NCI-H322M  1.12
9. SW 1573  1.11
10. NCI-H1437  1.1
11. HOP-62  1.08
12. NCI-H1355  1.08
13. NCI-H2085  1.08
14. NCI-H1666  1.07
15. HCC-366  1.03
16. NCI-H2023  1.02
17. EKVX  1.01
18. A-427  0.995
19. NCI-H1993  0.994
20. NCI-H1944  0.987
21. HCC-827  0.976
22. NCI-H1755  0.974
23. NCI-H520  0.962
24. RERF-LC-KJ  0.962
25. SK-LU-1  0.923
26. LOU-NH91  0.853
27. NCI-H2347  0.835
28. NCI-H23  0.805
29. NCI-H1915  0.792
30. PC-3 [JPC-3]  0.783
31. HCC-15  0.694
32. H3255  0.607
33. NCI-H441  0.487
34. NCI-H1793  0.441
35. BEN  0.0589

Same assay, conditions: first compound 0.03162 µM

In order of rising relative viability:
1. BEN  0.0559
2. NCI-H1793  0.362
3. H3255  0.419
4. HCC-15  0.673
5. LOU-NH91  0.702
6. RERF-LC-KJ  0.729
7. NCI-H1915  0.769
8. PC-3 [JPC-3]  0.788
9. NCI-H2347  0.815
10. NCI-H1355  0.897
11. EKVX  0.898
12. A-427  0.912
13. NCI-H2405  0.917
14. NCI-H1993  0.92
15. HOP-62  0.958
16. NCI-H23  0.992
17. NCI-H2023  0.996
18. NCI-H1666  0.998
19. NCI-H1755  1.02
20. NCI-H1975  1.02
21. SK-LU-1  1.02
22. HCC-827  1.03
23. NCI-H1944  1.03
24. NCI-H1437  1.11
25. NCI-H2085  1.12
26. HCC-366  1.12
27. NCI-H520  1.13
28. NCI-H1650  1.13
29. NCI-H322M  1.14
30. SW 1573  1.17
31. CAL-12T  1.19
32. 201T  1.21
33. NCI-H1395  1.26
34. NCI-H460  1.4

Same assay, conditions: first compound 0.1 µM

In order of rising relative viability:
1. BEN  0.0723
2. NCI-H1793  0.386
3. H3255  0.421
4. NCI-H2405  0.441
5. SK-LU-1  0.472
6. NCI-H2347  0.478
7. LOU-NH91  0.645
8. HCC-15  0.677
9. PC-3 [JPC-3]  0.754
10. NCI-H1915  0.786
11. HOP-62  0.81
12. NCI-H441  0.815
13. NCI-H1993  0.825
14. SW 1573  0.867
15. NCI-H1666  0.872
16. EKVX  0.881
17. NCI-H23  0.899
18. NCI-H460  0.932
19. NCI-H1975  0.954
20. NCI-H2023  0.977
21. HCC-827  0.978
22. NCI-H1755  0.998
23. A-427  0.999
24. NCI-H1355  0.999
25. NCI-H520  1.01
26. HCC-366  1.03
27. NCI-H1944  1.04
28. RERF-LC-KJ  1.04
29. NCI-H1395  1.07
30. NCI-H2085  1.09
31. NCI-H1650  1.14
32. NCI-H1437  1.15
33. 201T  1.16
34. NCI-H322M  1.19
35. CAL-12T  1.22

Same assay, conditions: first compound 0.3162 µM

In order of rising relative viability:
1. BEN  0.0658
2. NCI-H1793  0.386
3. H3255  0.501
4. NCI-H441  0.639
5. LOU-NH91  0.641
6. NCI-H2405  0.765
7. HCC-15  0.784
8. NCI-H1915  0.828
9. PC-3 [JPC-3]  0.841
10. NCI-H2347  0.885
11. NCI-H1993  0.897
12. NCI-H1755  1.01
13. A-427  1.02
14. SW 1573  1.03
15. NCI-H23  1.03
16. SK-LU-1  1.05
17. HOP-62  1.06
18. HCC-827  1.07
19. NCI-H2023  1.09
20. EKVX  1.11
21. NCI-H1944  1.13
22. NCI-H460  1.15
23. NCI-H520  1.15
24. 201T  1.16
25. NCI-H1975  1.17
26. NCI-H1395  1.18
27. NCI-H1437  1.18
28. NCI-H1666  1.19
29. NCI-H1355  1.22
30. HCC-366  1.23
31. NCI-H2085  1.24
32. NCI-H322M  1.28
33. RERF-LC-KJ  1.33
34. CAL-12T  1.48
35. NCI-H1650  1.6

Same assay, conditions: first compound 1 µM

In order of rising relative viability:
1. BEN  0.0687
2. H3255  0.492
3. NCI-H1793  0.511
4. NCI-H441  0.683
5. HCC-15  0.729
6. LOU-NH91  0.737
7. SK-LU-1  0.803
8. NCI-H2405  0.806
9. NCI-H23  0.822
10. NCI-H1355  0.825
11. NCI-H1915  0.831
12. NCI-H2347  0.865
13. PC-3 [JPC-3]  0.869
14. NCI-H1993  0.884
15. EKVX  0.899
16. RERF-LC-KJ  0.948
17. NCI-H2023  0.956
18. A-427  0.966
19. NCI-H1666  0.971
20. NCI-H1755  0.993
21. HCC-827  0.995
22. NCI-H520  1.01
23. HCC-366  1.01
24. NCI-H1944  1.03
25. NCI-H1437  1.11
26. HOP-62  1.12
27. NCI-H460  1.15
28. NCI-H1395  1.15
29. NCI-H2085  1.17
30. SW 1573  1.23
31. 201T  1.24
32. NCI-H1975  1.24
33. CAL-12T  1.26
34. NCI-H1650  1.34
35. NCI-H322M  1.38

Compound: O=C1NC(=O)[C@@H](c2cn3c4c(cccc24)CCC3)[C@@H]1c1c[nH]c2ccccc12 [Tivantinib] + CC1(C)CCC(c2ccc(Cl)cc2)=C(CN2CCN(c3ccc(C(=O)NS(=O)(=O)c4ccc(N[C@H](CCN5CCOCC5)CSc5ccccc5)c(S(=O)(=O)C(F)(F)F)c4)cc3)CC2)C1 [Navitoclax] (partner 0.5 µM)
Experiment: as above
Details: first compound 0.01 µM
Method in brief: as §1

In order of rising relative viability:
1. BEN  0.0556
2. NCI-H1793  0.43
3. H3255  0.559
4. LOU-NH91  0.651
5. HCC-15  0.728
6. NCI-H441  0.737
7. PC-3 [JPC-3]  0.775
8. NCI-H1915  0.789
9. SK-LU-1  0.864
10. NCI-H2347  0.868
11. NCI-H1355  0.879
12. A-427  0.893
13. HOP-62  0.9
14. RERF-LC-KJ  0.901
15. NCI-H1666  0.94
16. HCC-366  0.951
17. NCI-H1944  0.975
18. NCI-H23  0.987
19. EKVX  0.996
20. NCI-H2023  1.01
21. NCI-H1755  1.02
22. SW 1573  1.02
23. NCI-H1975  1.03
24. HCC-827  1.04
25. NCI-H1993  1.04
26. NCI-H460  1.06
27. NCI-H1437  1.1
28. NCI-H322M  1.11
29. NCI-H520  1.12
30. 201T  1.12
31. NCI-H2405  1.17
32. NCI-H2085  1.18
33. CAL-12T  1.2
34. NCI-H1650  1.33
35. NCI-H1395  1.48

Same assay, conditions: first compound 0.03162 µM

In order of falling relative viability:
1. NCI-H1650  1.33
2. CAL-12T  1.3
3. NCI-H2085  1.28
4. NCI-H520  1.17
5. NCI-H1395  1.17
6. 201T  1.17
7. HCC-366  1.14
8. NCI-H1437  1.11
9. NCI-H1975  1.07
10. NCI-H322M  1.06
11. HCC-827  1.05
12. RERF-LC-KJ  1.05
13. NCI-H460  1.02
14. NCI-H23  1.01
15. NCI-H2023  1
16. NCI-H1944  0.997
17. NCI-H1355  0.966
18. NCI-H1755  0.954
19. EKVX  0.953
20. NCI-H1993  0.929
21. SW 1573  0.917
22. A-427  0.882
23. NCI-H441  0.869
24. HOP-62  0.859
25. PC-3 [JPC-3]  0.829
26. NCI-H1915  0.796
27. NCI-H1666  0.79
28. SK-LU-1  0.783
29. NCI-H2405  0.766
30. NCI-H2347  0.718
31. LOU-NH91  0.637
32. HCC-15  0.628
33. H3255  0.564
34. NCI-H1793  0.417
35. BEN  0.0502

Same assay, conditions: first compound 0.1 µM

In order of rising relative viability:
1. BEN  0.07
2. NCI-H1793  0.481
3. H3255  0.508
4. LOU-NH91  0.622
5. NCI-H2347  0.678
6. HCC-15  0.684
7. NCI-H23  0.759
8. NCI-H1915  0.771
9. PC-3 [JPC-3]  0.801
10. RERF-LC-KJ  0.818
11. A-427  0.924
12. HCC-827  0.926
13. EKVX  0.929
14. NCI-H1755  0.934
15. NCI-H2023  0.937
16. SK-LU-1  0.941
17. NCI-H1355  0.949
18. NCI-H1666  0.961
19. NCI-H1437  0.968
20. NCI-H2405  0.973
21. NCI-H1650  0.987
22. NCI-H460  0.988
23. NCI-H1944  0.992
24. NCI-H520  0.995
25. HCC-366  1.03
26. SW 1573  1.06
27. NCI-H1993  1.06
28. HOP-62  1.07
29. NCI-H1975  1.12
30. NCI-H322M  1.14
31. CAL-12T  1.16
32. 201T  1.17
33. NCI-H1395  1.19
34. NCI-H2085  1.2

Same assay, conditions: first compound 0.3162 µM

In order of rising relative viability:
1. BEN  0.0718
2. NCI-H2405  0.305
3. LOU-NH91  0.355
4. NCI-H441  0.439
5. HCC-15  0.698
6. A-427  0.951
7. NCI-H2023  1
8. HCC-827  1.02
9. NCI-H1755  1.03
10. NCI-H520  1.1
11. NCI-H460  1.13
12. SW 1573  1.14
13. 201T  1.18
14. NCI-H1395  1.58
